{
  "source": "patent US4436726A",
  "about": "“N-Acylpeptide compound, processes for the preparation thereof and the pharmaceutical compositions” (Fujisawa Pharmaceutical Co., Ltd., priority 1980, dated 1984)",
  "key": {"[1]": {"tested_on": "complement serum (guinea pig complement)", "experiment": "Anticomplementary activity (inhibition of hemolysis of sensitized erythrocytes)", "assay_type": "biochemical", "details": "50% hemolysis inhibition, 37° C.", "experimental": "The anticomplementary activity of the test compound was measured according to the test method as described in Experimental Immunochemistry, edited by E. A. Kabat and M. M. Mayer, 2nd ed., Springfield, III: C. C. Thomas (1961) pages 133-240.\nA mixture of 1 ml of a 5-fold diluted solution of a Veronal buffer solution containing 1.5×10^-4 M Ca^2+ and 5×10^-4 M Mg^2+ and isotonic gelatin, 1.5 ml of complement serum (guinea pig complement) diluted 400 times with a physiological saline solution and 0.05 ml of a solution of a test compound (in this case, a test compound was dissolved in a physiological saline solution) was incubated at 37° C. for 30 minutes. To the said mixture there was added 0.4 ml of sensitized erythrocytes suspension containing 5×10^8 cells/ml and said mixture was incubated at 37° C. further for 60 minutes. After the incubation, the mixture was centrifuged in 3,000 rpm at 4° C. for 10 minutes.\nThe results are expressed in Table 1 as the concentration of each drugs inhibiting the hemolysis activity by 50% (IC50)."}, "[2]": {"tested_on": "nephrotoxin-type nephritis", "experiment": "Therapeutic effect on nephrotoxin-type nephritis (modified type of Masugi nephritis), proteinuria level", "assay_type": "in vivo", "details": "rats", "experimental": "(i) Preparation of anti-rat kidney rabbit serum.\nThe kidneys of SD male rats weighing about 250-300 g were sufficiently perfused with 0.9% saline. The renal cortical tissue was homogenized with 0.9% saline using a Teflon homogenizer. 4 ml of the homogenate was then suspended into the same volume of Freund's complete adjuvant. 2 ml of the said mixture was given subcutaneously to male rabbits weighing about 3 kg. 4 weeks later, 2 ml of the mixture was given intramuscularly as a booster. At the 5th week, a blood sample was taken. The serum separated by centrifugation at 3,000 rpm for 30 minutes was inactivated by heating at 56° C. for 30 minutes and preserved by freezing until just before use.\n(ii) Induction of experimental nephritis (modified type of Masugi nephritis)\nExperimental nephritis was induced in groups of 5 male rats weighing about 150-200 g by a single intravenous injection of 1 ml of the anti-kidney serum obtained in the above procedures.\n(iii) Evaluation of anti-nephritic effect of drugs.\nDrugs were given to a group of 5 rats once a day for 5 consecutive days from the 2nd day before the injection of anti-kidney serum. Each drug was dissolved into 3% sodium bicarbonate solution and given intraperitoneally in a volume of 1 ml/rat. In addition to the above drug-treated nephritic group, the non-treated-nephritic group (control) was set in the experiment. The proteinuria level (total) amount excreted into the urine over a 12 hour period) was measured using turbidometry employing bovine serum albumin as a control by means of sulfosalicylic acid."}, "[3]": {"details": "10 mg/kg intraperitoneally once a day for 5 days"}, "[4]": {"details": "30 mg/kg intraperitoneally once a day for 5 days"}},
  "data": [
    {"smiles": "CCCCCCCCCCCCCCCC(=O)OC(CCCCCCCCCCCCCCC)CC(=O)NCC(=O)N[C@@H](CO)C(=O)O", "note": "(stereo partly drawn) [Example 2, N-[N-(3-hexadecanoyloxyoctadecanoyl)glycyl]-L-serine]", "values": [
      {"measurement": "Anticomplementary Activity (IC50)", "setting": "[1]", "value": "0.03 to 0.04", "unit": "µg/mL"},
      {"measurement": "protein uria level, 1st day", "setting": "[2]; [3]", "value": 5.9, "unit": "mg/12 hours"},
      {"measurement": "protein uria level, 4th day", "setting": "[2]; [3]", "value": 3.7, "unit": "mg/12 hours"},
      {"measurement": "protein uria level, 7th day", "setting": "[2]; [3]", "value": 39.6, "unit": "mg/12 hours"},
      {"measurement": "protein uria level, 1st day", "setting": "[2]; [4]", "value": 3.5, "unit": "mg/12 hours"},
      {"measurement": "protein uria level, 4th day", "setting": "[2]; [4]", "value": 5.5, "unit": "mg/12 hours"},
      {"measurement": "protein uria level, 7th day", "setting": "[2]; [4]", "value": 16.5, "unit": "mg/12 hours"}
    ]}
  ]
}
